The results in this text go back to ChEMBL document CHEMBL5223119, “Discovery of pyrrolo[2,3-d]pyrimidine-based molecules as a Wee1 inhibitor template” (Bioorg Med Chem Lett, 2022).

One data set addresses Wee1-like protein kinase (Homo sapiens, UniProt P30291). Kind of data set: Inhibition of Wee1 (unknown origin) incubated for 60 mins by LanthaScreen Eu-Kinase binding assay. (In general: Time-resolved FRET reads energy transfer from a long-lived donor to a nearby acceptor.)
In a further data set the test system is NCI-H1299. Kind of data set: Antiproliferative activity against human NCI-H1299 cells assessed as cell growth inhibition incubated for 3 days by CellTiter-Glo Luminescent assay. The class given is functional, cell-based. The note with it: NCI-H1299, 72 h.
Data set [1] can be described thus: Cmax in rat at 5 mg/kg,IG measured upto 24 hrs by LC-MS/MS analysis. The class given is ADME, organism-based. Details: dose 5 mg/kg, time < 24 hrs, route ig. The note with it: in vivo, po.
The nature of data set [2]: Half life in rat at 5 mg/kg,IG measured upto 24 hrs by LC-MS/MS analysis. The class given is ADME, organism-based. The settings on record: in vivo, po.
Data set [3] in a line: AUC (0-infinity) in rat at 5 mg/kg,IG measured upto 24 hrs by LC-MS/MS analysis. The class given is ADME, organism-based. Details: dose 5 mg/kg, time < 24 hrs, route ig. The note with it: in vivo, po.
A short description of data set [4]: Tmax in rat at 5 mg/kg,IG measured upto 24 hrs by LC-MS/MS analysis. The class given is ADME, organism-based. The note with it: in vivo, po.

Sequence of Wee1-like protein kinase (P30291 whole entry): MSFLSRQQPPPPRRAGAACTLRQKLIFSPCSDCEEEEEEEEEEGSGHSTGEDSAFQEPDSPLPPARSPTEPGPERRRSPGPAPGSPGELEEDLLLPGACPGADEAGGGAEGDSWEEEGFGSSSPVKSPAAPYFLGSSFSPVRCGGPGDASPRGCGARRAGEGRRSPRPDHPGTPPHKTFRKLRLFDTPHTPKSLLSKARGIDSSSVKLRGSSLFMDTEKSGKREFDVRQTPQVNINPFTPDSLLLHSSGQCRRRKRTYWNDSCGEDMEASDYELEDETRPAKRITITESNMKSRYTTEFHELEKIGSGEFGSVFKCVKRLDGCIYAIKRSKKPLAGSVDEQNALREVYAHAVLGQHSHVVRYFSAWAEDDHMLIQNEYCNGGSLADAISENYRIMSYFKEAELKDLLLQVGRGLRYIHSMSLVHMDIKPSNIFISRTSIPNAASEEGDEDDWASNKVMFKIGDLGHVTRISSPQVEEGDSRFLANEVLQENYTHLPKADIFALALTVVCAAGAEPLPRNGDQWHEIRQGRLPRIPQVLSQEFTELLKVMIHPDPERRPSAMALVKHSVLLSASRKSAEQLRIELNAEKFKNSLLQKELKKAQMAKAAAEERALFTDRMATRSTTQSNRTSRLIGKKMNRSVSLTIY

One may read the IC50 as the concentration needed to halve the response being measured. On to `CCCc1cc2cnc(Nc3ccc(N4CCOCC4)cc3)nc2n1-c1cccc(N=S(C)(C)=O)n1`, for which the IC50 at Wee1-like protein kinase turned out to be 8.3 nM; with NCI-H1299 it was 451 nM.
Consider `CCc1cc2cnc(Nc3ccc(N4CCN(C)CC4)cc3)nc2n1-c1cccc(C(C)(C)O)n1`, for which the IC50 on Wee1-like protein kinase was 0.1 nM.
For the molecule `CCCc1c(F)c2cnc(Nc3ccc(N4CCOCC4)cc3)nc2n1-c1cccc(N=S(C)(C)=O)n1`, the IC50 amounted to 3.37 nM at Wee1-like protein kinase and 332 nM in the data set with NCI-H1299.
For `CN1CCN(C2CCN(c3ccc(Nc4ncc5cc(C6CC6)n(-c6cccc(N=S(C)(C)=O)n6)c5n4)cc3)CC2)CC1` the same measures were 2.54 nM and 156 nM.
For `COCc1cc2cnc(Nc3ccc(N4CCN(C)CC4)cc3)nc2n1-c1cccc(N=S(C)(C)=O)n1` the same measures were 2.03 nM and 101 nM.
`C=CCn1c(=O)c2cnc(Nc3ccc(N4CCN(C)CC4)cc3)nc2n1-c1cccc(C(C)(C)O)n1` [ADAVOSERTIB]: in the data set with NCI-H1299, the IC50 worked out at 104 nM.
Take `CN1CCN(c2ccc(Nc3ncc4cc(C5CC5)n(-c5cccc(N=S(C)(C)=O)n5)c4n3)cc2F)CC1`: the IC50 in the data set on NCI-H1299 was 42 nM.
By Cmax is commonly meant the maximum level reached in the sampled fluid or tissue. The term half-life denotes how long it takes for the measured level to halve. As a reminder, the AUC(0-inf) is total exposure, with the tail of the curve extrapolated. Read a high AUC(0-inf) as more exposure. In general, Tmax refers to the time from dosing to the highest level. The molecule `CN1CCC2(CC1)CCN(c1ccc(Nc3ncc4cc(C5CC5)n(-c5cccc(C(C)(C)O)n5)c4n3)cc1)CC2` yielded a Cmax in data set [1] of 163 ng/mL. In data set [2], this molecule gave a half-life of 19.2 h. For the same molecule, the IC50 in the data set with NCI-H1299 turned out to be 199 nM. Also, in data set [3], the AUC(0-inf) was 4070 ng·h/mL. Moreover, in data set [4], the Tmax stood at 4.8 h.
The matching figures for `CCc1cc2cnc(Nc3ccc(N4CCN(C)CC4)cc3)nc2n1-c1cccc(N=S(C)(C)=O)n1`: 8.1 ng/mL, 2.24 h, 23 nM, 48 ng·h/mL and 2.67 h.
Turning to `CN1CCN(c2ccc(Nc3ncc4cc(C5CC5)n(-c5cccc(N=S(C)(C)=O)n5)c4n3)cc2)CC1`, the IC50 was 0.92 nM on Wee1-like protein kinase and 42 nM in the data set on NCI-H1299. The Cmax in data set [1] was 76.9 ng/mL. Moreover, the half-life in data set [2] was 8.26 h. The molecule further had an AUC(0-inf) in data set [3] of 286 ng·h/mL. The Tmax in data set [4] is 0.92 h.
As for `CN1CCN(C2CCN(c3ccc(Nc4ncc5c(F)c(C6CC6)n(-c6cccc(C(C)(C)O)n6)c5n4)cc3)CC2)CC1`, the IC50 at Wee1-like protein kinase amounted to 0.86 nM; in the data set with NCI-H1299, 211 nM. In data set [1], the Cmax was 83 ng/mL. In addition, the half-life in data set [2] was 10.9 h. For the same molecule, the total exposure AUC(0-inf) in data set [3] is 1750 ng·h/mL. Also, the Tmax in data set [4] is 6 h.
`CC(C)c1cc2cnc(Nc3ccc(N4CCN(C)CC4)cc3)nc2n1-c1cccc(N=S(C)(C)=O)n1`: the IC50 in the data set on NCI-H1299 came to 100 nM.
Regarding `CCCc1c(F)c2cnc(Nc3ccc(N4CCN(C)CC4)cc3)nc2n1-c1cccc(C(C)(C)O)n1`, the IC50 was determined as 9.3 nM on Wee1-like protein kinase and 1720 nM in the data set with NCI-H1299.
On to `CCCc1cc2cnc(Nc3ccc(N4CCN(C)CC4)cc3)nc2n1-c1cccc(C(C)(C)O)n1`, for which the IC50 in the data set on NCI-H1299 amounted to 126 nM.
For the molecule `CN1CCN(C2CCN(c3ccc(Nc4ncc5cc(C6CC6)n(-c6cccc(C(C)(C)O)n6)c5n4)cc3)CC2)CC1`, the half-inhibitory concentration (IC50) amounted to 1.33 nM on Wee1-like protein kinase and 105 nM with NCI-H1299.
As for `CN1CCN(C2CCN(c3ccc(Nc4ncc5c(F)c(C6CC6)n(-c6cccc(C(C)(C)O)n6)c5n4)cc3F)CC2)CC1`, the half-inhibitory concentration (IC50) at Wee1-like protein kinase amounted to 10.6 nM; in the data set on NCI-H1299, 623 nM. Also, in data set [1], the Cmax was 117 ng/mL. The same molecule had a half-life in data set [2] of 33.4 h. This molecule yielded an AUC(0-inf) in data set [3] of 4580 ng·h/mL. In addition, the Tmax in data set [4] is 6.7 h.
`CCCc1c(F)c2cnc(Nc3ccc(N4CCN(C)CC4)cc3)nc2n1-c1cccc(N=S(C)(C)=O)n1` registered a Cmax in data set [1] of 36.8 ng/mL. In data set [2], this molecule had a half-life of 4.58 h. Moreover, the IC50 with NCI-H1299 was 43 nM. Also, in data set [3], the total exposure AUC(0-inf) was 314 ng·h/mL. In data set [4], the Tmax is 1.67 h.
For `Cc1cc2cnc(Nc3ccc(N4CCN(C)CC4)cc3)nc2n1-c1cccc(C(C)(C)O)n1`, the Cmax in data set [1] worked out at 125 ng/mL. The half-life in data set [2] was 3.56 h. Further, the AUC(0-inf) in data set [3] amounted to 710 ng·h/mL. In data set [4], the Tmax was 1 h.
With `CC(C)c1cc2cnc(Nc3ccc(N4CCN(C)CC4)cc3)nc2n1-c1cccc(C(C)(C)O)n1`, the IC50 on Wee1-like protein kinase came out at 0.42 nM; with NCI-H1299 it was 91 nM.
For `CN1CCN(c2ccc(Nc3ncc4c(F)c(C5CC5)n(-c5cccc(C(C)(C)O)n5)c4n3)cc2)CC1` the same measures were 38.2 nM and 288 nM.
Consider `CCCc1cc2cnc(Nc3ccc(N4CCC(N5CCN(C)CC5)CC4)cc3)nc2n1-c1cccc(N=S(C)(C)=O)n1`, for which, in the data set with NCI-H1299, the IC50 was 87 nM.
On to `CCCc1cc2cnc(Nc3ccc(N4CCN(C)CC4)cc3)nc2n1-c1cccc(N=S(C)(C)=O)n1`, for which the concentration in data set [1] peaked (Cmax) at 29.4 ng/mL. In data set [2], this molecule had a half-life of 3.24 h. Besides, in the data set with NCI-H1299, the IC50 is 33 nM. In data set [3], this molecule returned an area under the curve AUC(0-inf) of 188 ng·h/mL. Also, the Tmax in data set [4] worked out at 2.33 h.
As to `Cc1cc2cnc(Nc3ccc(N4CCN(C)CC4)cc3)nc2n1-c1cccc(N=S(C)(C)=O)n1`, in the data set with NCI-H1299, the concentration for half-maximal inhibition (IC50) turned out to be 59 nM.
